Results published in patent publication US6992079B2, “Substituted 11-phenyl-dibenzazepine compounds useful for the treatment or prevention of diseases characterized by abnormal cell proliferation” (President Fellows of Harvard College, priority 1997, dated 2006).
Read-outs that look alike come from different tables or passages of the source.

Legend:
MDA-MB-23 = assay: SRB antiproliferative assay; type: cell-based; conditions: Homo sapiens, MDA-MB-23
Excerpt: (§1) The cells were passaged using Trypsin (Gibco).

MMRU = assay: SRB antiproliferative assay; type: cell-based; conditions: Homo sapiens
Excerpt: as §1

[1] = tested on: H209 small lung cell carcinoma; assay: Mouse xenograft tumor growth; type: in vivo, SCID mice
CCRF-CEM = assay: In-Vitro Testing SRB panel: Leukemia; type: cell-based; conditions: 48 h
MOLT-4 = assay: In-Vitro Testing SRB panel: Leukemia; type: cell-based; conditions: MOLT-4, 48 h
A549/ATCC = type: cell-based
ROP-92 = type: cell-based; conditions: 48 h
SW-620 = assay: In-Vitro Testing SRB panel: Colon Cancer; type: cell-based; conditions: SW-620, 48 h
MALM-3M = assay: In-Vitro Testing SRB panel: Melanoma; type: cell-based; conditions: 48 h
IGROV1 = assay: In-Vitro Testing SRB panel: Ovarian Cancer; type: cell-based
OVCAR-4 = assay: In-Vitro Testing SRB panel: Ovarian Cancer; type: cell-based; conditions: OVCAR-4, 48 h
OVCAR-5 = assay: In-Vitro Testing SRB panel: Ovarian Cancer; type: cell-based; conditions: OVCAR-5, 48 h
OVCAR-8 = assay: In-Vitro Testing SRB panel: Ovarian Cancer; type: cell-based; conditions: OVCAR-8, 48 h
SK-OV-3 = assay: In-Vitro Testing SRB panel: Ovarian Cancer; type: cell-based; conditions: SK-OV-3, 48 h
786-0 = assay: In-Vitro Testing SRB panel: Renal Cancer; type: cell-based; conditions: 786-0, 48 h
MC-F7 = assay: In-Vitro Testing SRB panel: Breast Cancer; type: cell-based
MDA-MB-231/ATCC = assay: In-Vitro Testing SRB panel: Breast Cancer; type: cell-based
BT-549 = assay: In-Vitro Testing SRB panel: Breast Cancer; type: cell-based; conditions: BT-549, 48 h
ERVX = conditions: 48 h
[2] = Homo sapiens, read-out: LC50 (the source's name)

O=C(c1ccc([N+](=O)[O-])cc1)N1Cc2ccccc2C(c2ccccc2Cl)c2ccccc21 (stereo not drawn) [Compound 28, N-(4′-Nitrobenzoyl)-11-(2′-chlorophenyl)-5,6-dihydro-11H-dibenz[b,e]azepine]
IC50 (MDA-MB-23): 0.5 µM
IC50 (MMRU; MMRU (Melanoma), 5% FCS/5 day incubation): 0.2 µM
IC50 (MMRU; MMRU, 5% FCS/3 days): < 1.25 µM
tumor growth [1]: significantly inhibited tumor growth
TGI (CCRF-CEM): 2.99E−06 Molar
GI50 (CCRF-CEM; Homo sapiens): 0.0909 µM
CC50 (CCRF-CEM; [2]): > 100 µM
Percent Growth (CCRF-CEM; log10 conc −4.0 Molar): −3%
Percent Growth (CCRF-CEM; log10 conc −5.0 Molar): −11%
Percent Growth (CCRF-CEM; log10 conc −6.0 Molar): 10%
Percent Growth (CCRF-CEM; log10 conc −7.0 Molar): 49%
Percent Growth (CCRF-CEM; log10 conc −8.0 Molar): 66%
GI50 (MOLT-4; Homo sapiens): 0.7 µM
CC50 (MOLT-4; [2]): > 100 µM
TGI (MOLT-4): >1.00E−04 Molar
Percent Growth (MOLT-4; log10 conc −4.0 Molar): 24%
Percent Growth (MOLT-4; log10 conc −5.0 Molar): 24%
Percent Growth (MOLT-4; log10 conc −6.0 Molar): 44%
Percent Growth (MOLT-4; log10 conc −7.0 Molar): 82%
Percent Growth (MOLT-4; log10 conc −8.0 Molar): 109%
TGI (A549/ATCC; A549/ATCC, 48 h): >1.00E−04 Molar
Percent Growth (A549/ATCC; A549/ATCC, log10 conc −4.0 Molar, 48 h): 14%
Percent Growth (A549/ATCC; A549/ATCC, log10 conc −5.0 Molar, 48 h): 20%
Percent Growth (A549/ATCC; A549/ATCC, log10 conc −6.0 Molar, 48 h): 49%
Percent Growth (A549/ATCC; A549/ATCC, log10 conc −7.0 Molar, 48 h): 92%
Percent Growth (A549/ATCC; A549/ATCC, log10 conc −8.0 Molar, 48 h): 97%
GI50 (A549/ATCC; Homo sapiens, A549, 48 h): 0.937 µM
CC50 (A549/ATCC; Homo sapiens, A549/ATCC, 48 h, read-out: LC50 (the source's name)): > 100 µM
GI50 (ROP-92; Homo sapiens): 7.51 µM
CC50 (ROP-92; Homo sapiens, ROP-92, read-out: LC50 (the source's name)): > 100 µM
TGI (ROP-92; ROP-92): >1.00E−04 Molar
Percent Growth (ROP-92; ROP-92, log10 conc −4.0 Molar): 19%
Percent Growth (ROP-92; ROP-92, log10 conc −5.0 Molar): 46%
Percent Growth (ROP-92; ROP-92, log10 conc −6.0 Molar): 79%
Percent Growth (ROP-92; ROP-92, log10 conc −7.0 Molar): 104%
Percent Growth (ROP-92; ROP-92, log10 conc −8.0 Molar): 100%
GI50 (SW-620; Homo sapiens): 7.13 µM
CC50 (SW-620; [2]): > 100 µM
TGI (SW-620): >1.00E−04 Molar
Percent Growth (SW-620; log10 conc −4.0 Molar): 42%
Percent Growth (SW-620; log10 conc −5.0 Molar): 47%
Percent Growth (SW-620; log10 conc −6.0 Molar): 65%
Percent Growth (SW-620; log10 conc −7.0 Molar): 94%
Percent Growth (SW-620; log10 conc −8.0 Molar): 112%
GI50 (MALM-3M; Homo sapiens): 49.6 µM
CC50 (MALM-3M; Homo sapiens, MALM-3M, read-out: LC50 (the source's name)): > 100 µM
TGI (MALM-3M; MALM-3M): >1.00E−04 Molar
Percent Growth (MALM-3M; MALM-3M, log10 conc −4.0 Molar): 39%
Percent Growth (MALM-3M; MALM-3M, log10 conc −5.0 Molar): 76%
Percent Growth (MALM-3M; MALM-3M, log10 conc −6.0 Molar): 79%
Percent Growth (MALM-3M; MALM-3M, log10 conc −7.0 Molar): 85%
Percent Growth (MALM-3M; MALM-3M, log10 conc −8.0 Molar): 92%
GI50 (IGROV1; Homo sapiens, IGROV-1, 48 h): 1.88 µM
CC50 (IGROV1; Homo sapiens, IGROV-1, IGROV1, 48 h, read-out: LC50 (the source's name)): > 100 µM
TGI (IGROV1; IGROV1, 48 h): >1.00E−04 Molar
Percent Growth (IGROV1; IGROV1, log10 conc −4.0 Molar, 48 h): 25%
Percent Growth (IGROV1; IGROV1, log10 conc −5.0 Molar, 48 h): 34%
Percent Growth (IGROV1; IGROV1, log10 conc −6.0 Molar, 48 h): 56%
Percent Growth (IGROV1; IGROV1, log10 conc −7.0 Molar, 48 h): 97%
Percent Growth (IGROV1; IGROV1, log10 conc −8.0 Molar, 48 h): 102%
GI50 (OVCAR-4; Homo sapiens): 0.974 µM
CC50 (OVCAR-4; [2]): > 100 µM
TGI (OVCAR-4): >1.00E−04 Molar
Percent Growth (OVCAR-4; log10 conc −4.0 Molar): 10%
Percent Growth (OVCAR-4; log10 conc −5.0 Molar): 16%
Percent Growth (OVCAR-4; log10 conc −6.0 Molar): 50%
Percent Growth (OVCAR-4; log10 conc −7.0 Molar): 80%
Percent Growth (OVCAR-4; log10 conc −8.0 Molar): 98%
GI50 (OVCAR-5; Homo sapiens): > 100 µM
CC50 (OVCAR-5; [2]): > 100 µM
TGI (OVCAR-5): >1.00E−04 Molar
Percent Growth (OVCAR-5; log10 conc −4.0 Molar): 68%
Percent Growth (OVCAR-5; log10 conc −5.0 Molar): 75%
Percent Growth (OVCAR-5; log10 conc −6.0 Molar): 91%
Percent Growth (OVCAR-5; log10 conc −7.0 Molar): 96%
Percent Growth (OVCAR-5; log10 conc −8.0 Molar): 110%
GI50 (OVCAR-8; Homo sapiens): 2.86 µM
CC50 (OVCAR-8; [2]): > 100 µM
TGI (OVCAR-8): >1.00E−04 Molar
Percent Growth (OVCAR-8; log10 conc −4.0 Molar): 28%
Percent Growth (OVCAR-8; log10 conc −5.0 Molar): 33%
Percent Growth (OVCAR-8; log10 conc −6.0 Molar): 64%
Percent Growth (OVCAR-8; log10 conc −7.0 Molar): 102%
Percent Growth (OVCAR-8; log10 conc −8.0 Molar): 105%
GI50 (SK-OV-3; Homo sapiens): 8.31 µM
CC50 (SK-OV-3; [2]): > 100 µM
TGI (SK-OV-3): >1.00E−04 Molar
Percent Growth (SK-OV-3; log10 conc −4.0 Molar): 36%
Percent Growth (SK-OV-3; log10 conc −5.0 Molar): 47%
Percent Growth (SK-OV-3; log10 conc −6.0 Molar): 79%
Percent Growth (SK-OV-3; log10 conc −7.0 Molar): 97%
Percent Growth (SK-OV-3; log10 conc −8.0 Molar): 97%
TGI (786-0): >1.00E−04 Molar
Percent Growth (786-0; log10 conc −4.0 Molar): 27%
Percent Growth (786-0; log10 conc −5.0 Molar): 31%
Percent Growth (786-0; log10 conc −6.0 Molar): 51%
Percent Growth (786-0; log10 conc −7.0 Molar): 102%
Percent Growth (786-0; log10 conc −8.0 Molar): 100%
GI50 (786-0; Homo sapiens): 1.16 µM
CC50 (786-0; [2]): > 100 µM
GI50 (MC-F7; Homo sapiens, MCF7, 48 h): 0.872 µM
CC50 (MC-F7; Homo sapiens, MCF7, MC-F7, 48 h, read-out: LC50 (the source's name)): > 100 µM
TGI (MC-F7; MC-F7, 48 h): >1.00E−04 Molar
Percent Growth (MC-F7; MC-F7, log10 conc −4.0 Molar, 48 h): 8%
Percent Growth (MC-F7; MC-F7, log10 conc −5.0 Molar, 48 h): 21%
Percent Growth (MC-F7; MC-F7, log10 conc −6.0 Molar, 48 h): 48%
Percent Growth (MC-F7; MC-F7, log10 conc −7.0 Molar, 48 h): 88%
Percent Growth (MC-F7; MC-F7, log10 conc −8.0 Molar, 48 h): 97%
GI50 (MDA-MB-231/ATCC; Homo sapiens, MDA-MB-231, 48 h): 4.94 µM
CC50 (MDA-MB-231/ATCC; Homo sapiens, MDA-MB-231/ATCC, 48 h, read-out: LC50 (the source's name)): > 100 µM
TGI (MDA-MB-231/ATCC; MDA-MB-231/ATCC, 48 h): >1.00E−04 Molar
Percent Growth (MDA-MB-231/ATCC; MDA-MB-231/ATCC, log10 conc −4.0 Molar, 48 h): 22%
Percent Growth (MDA-MB-231/ATCC; MDA-MB-231/ATCC, log10 conc −5.0 Molar, 48 h): 36%
Percent Growth (MDA-MB-231/ATCC; MDA-MB-231/ATCC, log10 conc −6.0 Molar, 48 h): 72%
Percent Growth (MDA-MB-231/ATCC; MDA-MB-231/ATCC, log10 conc −7.0 Molar, 48 h): 96%
Percent Growth (MDA-MB-231/ATCC; MDA-MB-231/ATCC, log10 conc −8.0 Molar, 48 h): 103%
TGI (BT-549): >1.00E−04 Molar
Percent Growth (BT-549; log10 conc −4.0 Molar): 34%
Percent Growth (BT-549; log10 conc −5.0 Molar): 46%
Percent Growth (BT-549; log10 conc −6.0 Molar): 70%
Percent Growth (BT-549; log10 conc −7.0 Molar): 87%
Percent Growth (BT-549; log10 conc −8.0 Molar): 98%
GI50 (BT-549; Homo sapiens): 6.7 µM
CC50 (BT-549; [2]): > 100 µM
TGI (ERVX; ERVX): >1.00E−04 Molar
Percent Growth (ERVX; ERVX, log10 conc −4.0 Molar): 23%
Percent Growth (ERVX; ERVX, log10 conc −5.0 Molar): 24%
Percent Growth (ERVX; ERVX, log10 conc −6.0 Molar): 51%
Percent Growth (ERVX; ERVX, log10 conc −7.0 Molar): 93%
Percent Growth (ERVX; ERVX, log10 conc −8.0 Molar): 85%
GI50 (ERVX; Homo sapiens): 1.13 µM
CC50 (ERVX; Homo sapiens, read-out: LC50): > 100 µM
